{"source": "patent US20260048145A1", "about": "“COMPOSITIONS AND METHODS FOR TREATING DRUG ADDICTION” (The Children's Medical Center Corporation, priority 2022, published 2026)", "key": {"NK3R [1]": {"target": "T1, NK3R (Mus musculus, UniProt P47937)", "T1 construct": "from tissue; host or cells: whole living mice (in vivo behavioural tests)", "T1 sequence (P47937 1-452)": "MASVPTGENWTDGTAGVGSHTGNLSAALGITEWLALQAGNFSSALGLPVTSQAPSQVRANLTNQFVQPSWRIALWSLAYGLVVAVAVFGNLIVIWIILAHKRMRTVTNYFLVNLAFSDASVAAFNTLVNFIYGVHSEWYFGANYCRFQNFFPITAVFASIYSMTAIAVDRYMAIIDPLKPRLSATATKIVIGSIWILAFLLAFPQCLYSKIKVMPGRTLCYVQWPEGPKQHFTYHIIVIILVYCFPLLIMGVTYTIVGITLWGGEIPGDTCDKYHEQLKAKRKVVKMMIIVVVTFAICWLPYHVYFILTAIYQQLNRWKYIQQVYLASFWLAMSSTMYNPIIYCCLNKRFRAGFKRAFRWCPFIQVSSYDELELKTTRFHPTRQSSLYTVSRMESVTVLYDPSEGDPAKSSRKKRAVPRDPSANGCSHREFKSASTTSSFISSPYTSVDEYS", "assay": "Cocaine-induced locomotion assay with i.p. injection of senktide", "type": "in vivo, mice", "details": "i.p. injection of senktide vs saline; distance traveled in 30-minute post-treatment period", "experimental": "(§1) FIGS. 12A-12B show systemic injection of a TacR3 agonist, senktide, reduced cocaine-conditioned place preference and cocaine-induced locomotion. […] The CPP scores were calculated by subtracting the time spent in pre-conditioning phase from the time spent in post-conditioning phase, *, […], unpaired t-test.\nThe basal level of locomotion as well as cocaine-induced change of locomotor activity were assessed in the open field arena the same as the OFT. For chemogenetics experiments, 20 minutes after administration of either saline or CNO, mice were individually placed in the center of the test chamber, triggering the infra-red tracking system to record locomotor activity, as measured by the number of beam breaks. For optogenetic experiments, the total duration of the behavioral test was 30 minutes, which was divided into […] 5×6-min epochs (with 3-minutes laser on. 3-minutes laser off, respectively). Different groups of mice were balanced across the 8 chambers to avoid potential environmental bias.\n(§2) The Tac2 gene encodes the neuropeptide neurokinin B (NKB). NKB has high affinity for neurokinin 3 receptor (NK3R, encoded by the TacR3 gene). The NKB-NK3R (ligand-receptor) signal pathway is functional in both central and peripheral nervous systems and have been implicated in diverse physiological processes, such as reproduction, inflammation, and psychiatric disorders^55. […]"}, "NK3R [2]": {"target": "T1, NK3R", "assay": "Cocaine-CPP with systemic injection of senktide", "type": "in vivo, mice", "details": "systemic injection of senktide vs saline; CPP score", "experimental": "as §1\nA two-compartment CPP chamber was used with one compartment with grid rod style floor and the other with mesh style floor (Med Associates). Chamber size is 25×19×17 cm (L×D×H). Mice trajectories were tracked by infra-red photobeam detectors, and the travel distance and the duration the mice spent in the two compartments were recorded. The CPP protocol consists of three sessions that include pre-conditioning, conditioning, and post-conditioning.\nas §2, with “disorders^55. To evaluate the functional relevance of the NKB-NK3R pathway in addiction, an NK3R agonist, senktide, was systemically administered to mice, and then addiction-related behavioral tests were performed.” for “disorders^55.”"}}, "note": "Numbered stars: 1 amine (or outer) side, 2 acyl side, 3 side chain; on linkers, the order of the positions; unused ones are H or OH. Square brackets hold non-standard residues; d marks the D form. Peptide text beside a SMILES is read from it. NMeF = CN[C@@H](Cc1ccccc1)C(=O)O; Suc = O=C(CCC(=O)[*:2])[*:1]"}
{"compound": "CSCC[C@H](NC(=O)[C@H](CC(C)C)NC(=O)CNC(=O)[C@H](Cc1ccccc1)N(C)C(=O)[C@H](Cc1ccccc1)NC(=O)[C@H](CC(=O)O)NC(=O)CCC(=O)O)C(N)=O", "note": "[senktide, Suc-Asp-Phe-(Me-Phe)-Gly-Leu-Met] (Suc-DF[NMeF]GLM-NH2)", "values": [{"measurement": "cocaine-induced locomotion", "setting": "NK3R [1]", "result": "reduced"}, {"measurement": "cocaine-conditioned place preference", "setting": "NK3R [2]", "result": "reduced"}]}
